Toxic doses and inconclusive results are not listed. Cut-off read from the data, not from the text of the source: active = T/C of 150% or more; inactive = T/C below 125%. Peptide text beside a SMILES is read from it. * marks the point of attachment. Cbz = O=C(OCc1ccccc1)*
Test system: L1210 leukemia ip in BDF1 mice, survival T/C
Assay: NCI In Vivo Anticancer Drug Screen. Data for tumor model L1210 Leukemia (intraperitoneal) in B6D2F1 (BDF1) mice
Conditions: endpoint: mean survival time, higher = longer survival
Method in brief: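 Each compound was tested against a transplantable tumor grown in mice. The endpoint was survival, with treated animals benchmarked against vehicle controls as a simple ratio.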

[1] = dose: 100.0 mg/kg/injection, schedule: Q04DX002 (ip), vehicle: saline with Tween-80
[2] = dose: 200.0 mg/kg/injection, schedule: Q04DX002 (ip), vehicle: saline with Tween-80
[3] = dose: 400.0 mg/kg/injection, schedule: Q04DX002 (ip), vehicle: saline with Tween-80
[4] = dose: 100.0 mg/kg/injection, schedule: Q01DX009 (ip), vehicle: saline with Tween-80
[5] = dose: 200.0 mg/kg/injection, schedule: Q01DX009 (ip), vehicle: saline with Tween-80
[6] = dose: 400.0 mg/kg/injection, schedule: Q01DX009 (ip), vehicle: saline with Tween-80
[7] = dose: 50.0 mg/kg/injection, schedule: Q01DX001 (ip), vehicle: carboxymethylcellulose (CMC)
[8] = dose: 100.0 mg/kg/injection, schedule: Q01DX001 (ip), vehicle: carboxymethylcellulose (CMC)
[9] = dose: 50.0 mg/kg/injection, schedule: Q01DX009 (ip), vehicle: saline
[10] = dose: 100.0 mg/kg/injection, schedule: Q01DX009 (ip), vehicle: saline
[11] = dose: 200.0 mg/kg/injection, schedule: Q01DX009 (ip), vehicle: saline
[12] = dose: 400.0 mg/kg/injection, schedule: Q01DX009 (ip), vehicle: saline
[13] = dose: 100.0 mg/kg/injection, schedule: Q01DX001 (ip), vehicle: saline with Tween-80
[14] = dose: 200.0 mg/kg/injection, schedule: Q01DX001 (ip), vehicle: saline with Tween-80
[15] = dose: 100.0 mg/kg/injection, schedule: Q04DX003 (ip), vehicle: saline
[16] = dose: 200.0 mg/kg/injection, schedule: Q04DX003 (ip), vehicle: saline
[17] = dose: 400.0 mg/kg/injection, schedule: Q04DX003 (ip), vehicle: saline
[18] = dose: 200.0 mg/kg/injection, schedule: Q01DX001 (ip), vehicle: carboxymethylcellulose (CMC)
[19] = dose: 400.0 mg/kg/injection, schedule: Q01DX001 (ip), vehicle: carboxymethylcellulose (CMC)
[20] = dose: 100.0 mg/kg/injection, schedule: Q01DX001 (ip), vehicle: saline
[21] = dose: 200.0 mg/kg/injection, schedule: Q01DX001 (ip), vehicle: saline
[22] = dose: 400.0 mg/kg/injection, schedule: Q01DX001 (ip), vehicle: saline
[23] = dose: 100.0 mg/kg/injection, schedule: Q04DX002 (ip), vehicle: Klucel (hydroxypropylcellulose) (HPC)
[24] = dose: 12.5 mg/kg/injection, schedule: Q04DX003 (ip), vehicle: saline
[25] = dose: 25.0 mg/kg/injection, schedule: Q04DX003 (ip), vehicle: saline
[26] = dose: 50.0 mg/kg/injection, schedule: Q04DX003 (ip), vehicle: saline

Measured: T/C

O=C(Cc1ccccc1)NCCCl
inactive: [1] 103 % of control | [2] 103 % of control | [3] 105 % of control

CC(NC(=O)OCc1ccccc1)C(=O)Nc1ccc(C(=O)O)c(O)c1 (configuration not stated)
inactive: [4] 90 % of control | [5] 88 % of control | [6] 98 % of control

Cc1ccc(NC(=O)C(Br)C(Br)c2ccccc2)cc1Cl (configuration not stated)
inactive: dose: 100.0 mg/kg/injection, schedule: Q01DX009 (ip), vehicle: Klucel (hydroxypropylcellulose) (HPC) 96 % of control | dose: 200.0 mg/kg/injection, schedule: Q01DX009 (ip), vehicle: Klucel (hydroxypropylcellulose) (HPC) 92 % of control | dose: 400.0 mg/kg/injection, schedule: Q01DX009 (ip), vehicle: Klucel (hydroxypropylcellulose) (HPC) 88 % of control

CC(=O)Nc1ccc2c(c1)C(N(C)C)c1ccccc1-2 (configuration not stated)
inactive: [7] 101 % of control | [8] 106 % of control

CCOC(=O)c1ccc(F)cc1
inactive: [1] 101 % of control | [2] 115 % of control | [3] 104 % of control

COC(=O)C(N)Cc1ccc(OC(c2ccccc2)(c2ccccc2)c2ccccc2)cc1 (configuration not stated)
inactive: [9] 101 % of control | [10] 103 % of control | [11] 100 % of control | [12] 100 % of control

CC(NC(=O)C(C)NC(=O)OCc1ccccc1)C(N)=O (stereo not drawn) (Cbz-Ala-Ala-NH2; configuration not given here)
inactive: [4] 88 % of control | [5] 88 % of control | [6] 88 % of control

c1ccc(-c2cnnn2-c2ccccc2)cc1
inactive: [13] 105 % of control | [14] 100 % of control | dose: 400.0 mg/kg/injection, schedule: Q01DX001 (ip), vehicle: saline with Tween-80 105 % of control

CCOC(=O)CC#N
inactive: [15] 103 % of control | [16] 103 % of control | [17] 102 % of control

O=C(NNS(=O)(=O)c1ccc([N+](=O)[O-])cc1)c1ccccc1
inactive: [8] 105 % of control | [18] 102 % of control | [19] 100 % of control

Cc1cc([N+](=O)[O-])ccc1I
inactive: [7] 101 % of control | [8] 95 % of control | [18] 95 % of control | [19] 90 % of control

FC(F)(F)c1ccc2c(c1)N(CCCN(CCCl)CCCl)c1ccccc1S2
inactive: dose: 3.12 mg/kg/injection, schedule: Q01DX001 (ip), vehicle: saline with Tween-80 102 % of control | dose: 3.12 mg/kg/injection, schedule: Q01DX009 (ip), vehicle: saline with Tween-80 102 % of control | dose: 6.25 mg/kg/injection, schedule: Q01DX001 (ip), vehicle: saline with Tween-80 102 % of control | dose: 6.25 mg/kg/injection, schedule: Q01DX009 (ip), vehicle: saline with Tween-80 98 % of control | dose: 12.5 mg/kg/injection, schedule: Q01DX001 (ip), vehicle: saline with Tween-80 100 % of control | dose: 12.5 mg/kg/injection, schedule: Q01DX009 (ip), vehicle: saline with Tween-80 100 % of control | dose: 12.5 mg/kg/injection, schedule: Q04DX003 (ip), vehicle: saline with Tween-80 102 % of control | dose: 25.0 mg/kg/injection, schedule: Q04DX003 (ip), vehicle: saline with Tween-80 113 % of control | dose: 50.0 mg/kg/injection, schedule: Q04DX003 (ip), vehicle: saline with Tween-80 98 % of control | dose: 100.0 mg/kg/injection, schedule: Q04DX003 (ip), vehicle: saline with Tween-80 113 % of control

CCOC(=O)C(C)(c1[nH]c2ccccc2c1C)c1[nH]c2ccccc2c1C
inactive: dose: 50.0 mg/kg/injection, schedule: Q01DX001 (ip), vehicle: saline 103 % of control | [20] 103 % of control | [21] 95 % of control | [22] 89 % of control

C1=C(c2ccccc2)N(C2CC2)C(c2ccccc2)=CN1Cc1ccccc1
inactive: [23] 95 % of control | dose: 200.0 mg/kg/injection, schedule: Q04DX002 (ip), vehicle: Klucel (hydroxypropylcellulose) (HPC) 118 % of control | dose: 400.0 mg/kg/injection, schedule: Q04DX002 (ip), vehicle: Klucel (hydroxypropylcellulose) (HPC) 103 % of control

C=Cc1c[nH]c(=O)[nH]c1=O
inactive: dose: 25.0 mg/kg/injection, schedule: Q04DX002 (ip), vehicle: Klucel (hydroxypropylcellulose) (HPC) 94 % of control | dose: 50.0 mg/kg/injection, schedule: Q04DX002 (ip), vehicle: Klucel (hydroxypropylcellulose) (HPC) 94 % of control | [23] 102 % of control

CC1C(O)C(O)CC2COCC21 (configuration not stated)
inactive: dose: 100.0 mg/kg/injection, schedule: Q01DX001 (ip), vehicle: saline sonified 91 % of control | dose: 200.0 mg/kg/injection, schedule: Q01DX001 (ip), vehicle: saline sonified 107 % of control | dose: 400.0 mg/kg/injection, schedule: Q01DX001 (ip), vehicle: saline sonified 113 % of control

Cc1cc(C)c(B(O)O)c(C)c1
inactive: [10] 100 % of control | [15] 105 % of control | [11] 96 % of control | [16] 100 % of control | [12] 103 % of control | [17] 102 % of control

O=C(NS(=O)(=O)c1ccc(Cl)c(Cl)c1)NS(=O)(=O)c1ccc(Cl)c(Cl)c1
inactive: [13] 100 % of control | [14] 99 % of control

CCN(CC)CCCC(C)N (configuration not stated)
inactive: [24] 104 % of control | [25] 100 % of control | [26] 101 % of control

c1cc(OCC2CO2)ccc1OCC1CO1 (configuration not stated)
inactive: dose: 100.0 mg/kg/injection, schedule: Q01DX001 (ip), vehicle: other 115 % of control | dose: 200.0 mg/kg/injection, schedule: Q01DX001 (ip), vehicle: other 124 % of control | dose: 400.0 mg/kg/injection, schedule: Q01DX001 (ip), vehicle: other 121 % of control

CN(N=O)C(=O)NC1C(O)C(CO)OC1n1ccc(=O)[nH]c1=O (configuration not stated)
inactive: [15] 98 % of control | [16] 96 % of control | [17] 102 % of control

Br/C=C/C[N+]12CN3CN(CN(C3)C1)C2
inactive: dose: 12.5 mg/kg/injection, schedule: Q01DX009 (ip), vehicle: saline 95 % of control | [24] 101 % of control | dose: 25.0 mg/kg/injection, schedule: Q01DX009 (ip), vehicle: saline 101 % of control | [25] 102 % of control | [9] 96 % of control | [26] 98 % of control

Cc1ccc(NCN2C(=O)NC(c3ccccc3)(c3ccccc3)C2=O)cc1
inactive: dose: 100.0 mg/kg/injection, schedule: Q01DX001 (ip), vehicle: Klucel (hydroxypropylcellulose) (HPC) 93 % of control | dose: 200.0 mg/kg/injection, schedule: Q01DX001 (ip), vehicle: Klucel (hydroxypropylcellulose) (HPC) 103 % of control | dose: 400.0 mg/kg/injection, schedule: Q01DX001 (ip), vehicle: Klucel (hydroxypropylcellulose) (HPC) 92 % of control

NC(N)=N/N=C\CC(O)CO (configuration not stated)
inactive: dose: 15.0 mg/kg/injection, schedule: Q01DX Z (ip), vehicle: methylcellulose (MC) 100 % of control | dose: 30.0 mg/kg/injection, schedule: Q01DX Z (ip), vehicle: methylcellulose (MC) 103 % of control | dose: 60.0 mg/kg/injection, schedule: Q01DX Z (ip), vehicle: methylcellulose (MC) 100 % of control | dose: 60.0 mg/kg/injection, schedule: Q01DX Z (oral), vehicle: methylcellulose (MC) 97 % of control | dose: 120.0 mg/kg/injection, schedule: Q01DX Z (ip), vehicle: methylcellulose (MC) 103 % of control | dose: 120.0 mg/kg/injection, schedule: Q01DX Z (oral), vehicle: methylcellulose (MC) 94 % of control | dose: 240.0 mg/kg/injection, schedule: Q01DX Z (oral), vehicle: methylcellulose (MC) 88 % of control | dose: 480.0 mg/kg/injection, schedule: Q01DX Z (oral), vehicle: methylcellulose (MC) 86 % of control

Cc1cncc(CC(O)(C(F)(F)F)C(F)(F)F)n1
inactive: [20] 102 % of control | [4] 97 % of control | [21] 96 % of control | [5] 103 % of control | [22] 104 % of control | [6] 101 % of control

Source: PubChem BioAssay AID248 (DTP/NCI, 2004)
